The text below walks through data of patent publication US20100056508A1, “AMINE DERIVATIVES AND THEIR USE IN BETA-2-ADRENORECEPTOR MEDIATED DISEASES” (ASTRAZENECA AB, priority 2006, published 2010).

Where a name gives a salt, the structure may show the parent alone.

In the assay the target is T1, recombinant human α1D receptor (Homo sapiens, UniProt P25100).
T1 construct: expressed in transfected cells; host or cells: human embryonic kidney 293 cells (HEK93 [sic]), membranes
T1 sequence (P25100 1-572): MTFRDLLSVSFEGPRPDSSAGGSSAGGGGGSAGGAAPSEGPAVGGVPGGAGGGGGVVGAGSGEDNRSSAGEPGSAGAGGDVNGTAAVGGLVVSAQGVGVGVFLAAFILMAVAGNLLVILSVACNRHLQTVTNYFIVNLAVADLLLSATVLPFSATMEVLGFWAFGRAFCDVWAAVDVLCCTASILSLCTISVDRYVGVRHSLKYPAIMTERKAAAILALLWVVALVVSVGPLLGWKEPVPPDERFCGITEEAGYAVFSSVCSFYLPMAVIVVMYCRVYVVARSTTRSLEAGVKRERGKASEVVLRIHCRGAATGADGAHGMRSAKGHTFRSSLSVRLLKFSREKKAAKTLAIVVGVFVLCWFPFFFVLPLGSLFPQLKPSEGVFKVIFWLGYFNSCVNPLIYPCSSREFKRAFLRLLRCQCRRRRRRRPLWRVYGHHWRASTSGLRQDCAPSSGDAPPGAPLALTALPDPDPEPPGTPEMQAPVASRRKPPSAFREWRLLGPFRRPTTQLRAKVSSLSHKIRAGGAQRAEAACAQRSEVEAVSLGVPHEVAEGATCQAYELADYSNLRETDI
Nature of the assay: Adrenergic α1D selectivity assay, [3H]-prazosin binding to membranes. To be noted: inhibition of [3H]-prazosin binding, HEK cell membranes, read-out: α1 bind pIC50 (converted). The gist of the method:
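Competition binding on HEK293 membranes with recombinant human α1D receptor, 0.3 nM [3H]-prazosin, 50 mM HEPES/1 mM EDTA pH 7.4, 2 h at room temperature; filtration and scintillation counting. Non-specific binding defined with 10 μM BMY7378. pIC50 from four-parameter logistic fit of specific-binding inhibition.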
For `O=C(CCNCCc1ccccc1)N(CCNCCc1ccc(O)c(O)c1)C1CCCCC1` [Example 22, N-Cyclohexyl-N-(2-(3,4-dihydroxyphenethylamino)ethyl)-3-(phenethylamino)propanamide bis(trifluoroacetate)], the IC50 was 200 nM.
With `O=C(CCOCCc1ccccc1)N(CCNCCc1ccc(O)c2[nH]c(=O)ccc12)C1CCCCC1` [Example 2, N-Cyclohexyl-N-(2-(2-(8-hydroxy-2-oxo-1,2-dihydroquinolin-5-yl)ethylamino)ethyl)-3-phenethoxypropanamide] the figure was 794 nM; with `O=C1COc2c(CCNCCN(C(=O)CCOCCc3cccc(F)c3)C3CCCCC3)ccc(O)c2N1` [Example 74, N-Cyclohexyl-3-(3-fluorophenethoxy)-N-(2-(2-(5-hydroxy-3-oxo-3,4-dihydro-2H-benzo[b][1,4]oxazin-8-yl)ethylamino)ethyl)propanamide trifluoroacetate], 794 nM; with `O=C1COc2c(CCNCCN(C(=O)CCNCCc3cccc(Cl)c3)C3CCCCCC3)ccc(O)c2N1` [Example 68, 3-(3-Chlorophenethylamino)-N-cycloheptyl-N-(2-(2-(5-hydroxy-3-oxo-3,4-dihydro-2H-benzo[b][1,4]oxazin-8-yl)ethylamino)ethyl)propanamide bis(trifluoroacetate)], 158 nM.
As for `O=C1COc2c(CCNCCN(C(=O)CCNCCc3cccc(F)c3)C3CCCCCC3)ccc(O)c2N1` [Example 69, N-Cycloheptyl-3-(3-fluorophenethylamino)-N-(2-(2-(5-hydroxy-3-oxo-3,4-dihydro-2H-benzo[b][1,4]oxazin-8-yl)ethylamino)ethyl)propanamide bis(trifluoroacetate)], the figure is 200 nM; as for `C[C@H](C1CCCCC1)N(CCNCCc1ccc(O)c2c1OCC(=O)N2)C(=O)CCNCCc1ccccc1` [Example 61, (R)—N-(1-Cyclohexylethyl)-N-(2-(2-(5-hydroxy-3-oxo-3,4-dihydro-2H-benzo[b][1,4]oxazin-8-yl)ethylamino)ethyl)-3-(phenethylamino)propanamide bis(trifluoroacetate)], 20 nM; as for `Cc1cc(CCNCCC(=O)N(CCNCCc2ccc(O)c3c2OCC(=O)N3)C2CCCCC2)ccc1F` [Example 40, N-Cyclohexyl-3-(4-fluoro-3-methylphenethylamino)-N-(2-(2-(5-hydroxy-3-oxo-3,4-dihydro-2H-benzo[b][1,4]oxazin-8-yl)ethylamino)ethyl)propanamide bis(trifluoroacetate)], 31.6 nM.
With `O=CNc1cc(CCNCCN(C(=O)CCNCCc2ccccc2)C2CCCCC2)ccc1O` [Example 21, N-Cyclohexyl-N-(2-(3-formamido-4-hydroxyphenethylamino)ethyl)-3-(phenethylamino)propanamide] the figure was 79.4 nM.
For the molecule `CC[C@@H](C)N(CCNCCc1ccc(O)c2[nH]c(=O)ccc12)C(=O)CCOCCc1ccccc1.Cl` [Example 79, (R)—N-sec-Butyl-N-(2-(2-(8-hydroxy-2-oxo-1,2-dihydroquinolin-5-yl)ethylamino)ethyl)-3-phenethoxypropanamide hydrochloride], the IC50 is 631 nM.
As for `O=C1COc2c(CCNCCN(C(=O)CCNCCc3ccc(Cl)cc3)C3CCCCCC3)ccc(O)c2N1` [Example 63, 3-(4-Chlorophenethylamino)-N-cycloheptyl-N-(2-(2-(5-hydroxy-3-oxo-3,4-dihydro-2H-benzo[b][1,4]oxazin-8-yl)ethylamino)ethyl)propanamide bis(trifluoroacetate)], the figure is 100 nM.
With `O=C1COc2c(CCNCCN(C(=O)CCOCCc3ccc(F)cc3)C3CCCCC3)ccc(O)c2N1` [Example 75, N-Cyclohexyl-3-(4-fluorophenethoxy)-N-(2-(2-(5-hydroxy-3-oxo-3,4-dihydro-2H-benzo[b][1,4]oxazin-8-yl)ethylamino)ethyl)propanamide trifluoroacetate] the figure was 631 nM; with `O=C1COc2c(CCNCCN(C(=O)CCOCCc3ccccc3F)C3CCCCC3)ccc(O)c2N1` [Example 76, N-Cyclohexyl-3-(2-fluorophenethoxy)-N-(2-(2-(5-hydroxy-3-oxo-3,4-dihydro-2H-benzo[b][1,4]oxazin-8-yl)ethylamino)ethyl)propanamide trifluoroacetate], 1000 nM.
As for `O=C1COc2c(CCNCCN(C(=O)CCNCCc3cc(F)cc(F)c3)C3CCCCC3)ccc(O)c2N1` [Example 35, N-Cyclohexyl-3-(3,5-difluorophenethylamino)-N-(2-(2-(5-hydroxy-3-oxo-3,4-dihydro-2H-benzo[b][1,4]oxazin-8-yl)ethylamino)ethyl)propanamide bis(trifluoroacetate)], the figure is 398 nM; as for `CCCC[C@@H](C)N(CCNCCc1ccc(O)c2c1OCC(=O)N2)C(=O)CCNCCc1cc(F)ccc1C` [Example 57, (R)-3-(5-Fluoro-2-methylphenethylamino)-N-(hexan-2-yl)-N-(2-(2-(5-hydroxy-3-oxo-3,4-dihydro-2H-benzo[b][1,4]oxazin-8-yl)ethylamino)ethyl)propanamide bis(trifluoroacetate)], 100 nM; as for `CCCC[C@@H](C)N(CCNCCc1ccc(O)c2c1OCC(=O)N2)C(=O)CCNCCc1ccccc1` [Example 25, (R)—N-(Hexan-2-yl)-N-(2-(2-(5-hydroxy-3-oxo-3,4-dihydro-2H-benzo[b][1,4]oxazin-8-yl)ethylamino)ethyl)-3-(phenethylamino)propanamide bis(trifluoroacetate)], 63.1 nM.
